Patent publication US20010011146A1, “NEUROPROTECTIVE COMPOUNDS AND USES THEREOF” (priority 1997, published 2001)
“Also recorded” adds a separate entry of the source. Like-named read-outs stand apart in the source and are kept apart here. Blank lines part the entries; values can stand above or below the compound they belong to.

What was measured:
CA1 hippocampal neurons [1] = assay: Four-vessel occlusion (4-VO) ischemia, CA1 neuronal density measurement; type: in vivo, male Wister rats
Excerpt: (§1) Four-vessel occlusion (“4-VO”) ischemia. All procedures regarding animals were in compliance with AALAC guidelines set forth in the PHS animal “Guide in the Care and Use of Laboratory Animals”. Animals (male Wister rats, 200-250 gr, Hill Top, Scottsdale) were anesthetized with a mixture of halothane (1%), oxygen, and nitrogen, and surgically prepared for 4-VO according to the method described by Pulsinell, W. A., et al., “Regional Cerebral Blood Flow and Glucose Metabolism Following Transient Forebrain Ischemia,” Ann. Neurol., 11:499-502 (1982), which is hereby incorporated by reference. Surgical procedures included placing reversible clasps around the common carotid arteries and placing a suture around the neck muscles to control collateral blood flow to the brain. Food was withheld overnight, but water was freely available. On the following day, 10 minutes of 4-VO ischemia was induced by tightening the clasps around the common carotid arteries and the suture. In order to minimize variability, the following criteria was set: loss of righting reflex and bilateral pupil dilation during the entire ischemic period, and 20±5 minutes of postischemic coma after 10 minutes of ischemia. Only animals that meet these criteria were included in the study. The body temperature of all animals was kept at 37.5±0.5° C. by a thermocouple-regulated heating lamp during ischemia and reperfusion until the animals regained consciousness and established thermo-homeostasis.
(§2) NAMDA administration. Animals subject to 10 minutes of ischemia randomly were divided into 4 groups. Animals received one of the following triple intraperitoneal injections: i) saline at 0, 0.5, and 2 hours, ii) NAMDA (10 mg/kg) at 0, 0.5, and 2 hours, iii) NAMDA at 1, 1.5, and 3 hours, and iv) NAMDA at 2, 2.5, and 4 hours of cerebral reperfusion. To examine whether NAMDA caused hypothermia, the animals' body temperatures were recorded for up to the first 4 hours of cerebral reperfusion. Sham-operated animals that underwent surgery and carotid manipulation were used as non-ischemic controls.
Tissue preparation. […] Some sections were […] on slides and stained with cresyl violet to measure neuronal density. […]
Cell density measurement. […] Neurons were counted in the frame if part or all of the nucleus was within the frame and not in contact with the left or bottom border of the frame. […] The number of neurons counted were divided by the total volume sampled to generate the density of neurons in CA1. Mean neuron density was calculated for the left and right hippocampus (side) and for the anterior and posterior regions for each animal. […]

[2] = tested on: NADPH-diaphorase activity in BV-2 cells; assay: NADPH-diaphorase histochemical staining in BV-2 cells; type: cell-based, murine; details: 5 mM
Experimental: NADPH-Diaphorase histochemistry. The histochemical staining was performed according to the method described by Vincent, et al., “Histochemical Mapping of Nitric Oxide Synthase in the Rat Brain,” Neuroscience, 46:755-784 (1992), which is hereby incorporated by reference). Sections containing dorsal hippocampus are washed twice in 0.1 M phosphate buffer (“PB”) and then processed for NADPH-diaphorase histochemistry. To establish a temporal profile of NADPH-diaphorase staining during postischemic period, sections were obtained from animals that were perfuse fixed at 12 hours, 24 hours, 48 hours, 72 hours, and 7 days after ischemia. The sections were then incubated for 1 hour at 37° C. with a solution containing 1 mg/ml of NADPH, 0.25 mg/ml of nitro blue tetrazolium (“NBT”), and 0.3% Triton X-100 in 0.1 M PB. The reaction was terminated by the addition of cold 0.1M PB. […]
(§3) After the treatment, 200 μl aliquots of cell supernatant from each well were mixed with 100 μl of Griess reagent (1 % sulphanilamide, 0.1% naphthylethylenediamine dihydrochloride, 2.5% H3PO4) in 96 well microtiter plates. The mixtures were incubated for 10 minutes to form a chromophore and the absorbance was read at 540 nm using a plate reader. The amount of nitrite accumulation from media was determined against a standard curve generated by a known concentration of NaNO3. […]

BV-2 microglia cells = assay: Nitrite measurement (Griess reaction) in BV-2 microglia cells; type: cell-based, murine; details: 6 hours, 0.05-5 mM
Experimental: Nitrite measurement on microylial cell. To measure nitrite level, a NO oxidative metabolite, murine BV-2 cells, were used. […] The cells were grown and maintained in Dulbeccos Modified Eagle medium (“DMEM”, Gibco, Gaithersburg, Md.) supplemented with 10% fetal calf serum and penicillin/streptomycine at 37° C. in a humidified incubator under 5% CO2. BV-2 microglia cells were cultured and grown in 24 well culture plates and treated for 6 hours with 0. 0.05, 0.5, 2, or 5 mM or NAMDA either in the presence or absence of lipopolysaccharide (LPS, 0.2 μg/ml).
as §3, with “[…]. After removal of the supernatant for the nitrite assay, cells were immediately washed with 0.1M PB, fixed with 4% formaldehyde for 30 minutes, and washed with 0.1M PB for 5 minutes. NADPH-diaphorase histochemical staining was performed as described above.” for “NaNO3.”

[3] = Body temperature recording during cerebral reperfusion (4-VO ischemic animals); type: in vivo, male Wister rats; details: for Temperature recording during cerebral reperfusion: mean ± s.e.m., in °C (unit assumed)
Excerpt: as §1, §2
The animals' body temperature was kept at 37.5±0.5° C. during ischemia and first half hour of cerebral reperfusion when animals were typically stayed in postischemic coma. Temperatures were recorded soon after animals regained consciousness and recorded for up to 4 hours of cerebral reperfusion (Table 1).

[4] = tested on: NADPH-diaphorase activity in CA1 hippocampus; assay: NADPH-diaphorase histochemistry in postischemic CA1 hippocampus; type: in vivo, male Wister rats; details: triple i.p. injection 10 mg/kg during reperfusion
Experimental: as §2
Tissue preparation. Animals were anesthetized with sodium pentobarbital (120 mg/kg) and perfused transcardially with saline containing 0.5% sodium nitrite and 10 U/ml heparin sulfate followed by 4% cold formaldehyde in 0.1 M sodium phosphate buffer (PB, pH 7.2). The brains were further postfixed for 2 hours and stored in a 30% sucrose solution overnight. Fixed brains were sectioned at 30 μm on a sliding microtome. For each animal, the dorsal hippocampus between bregma −2.5 mm and −4.0 mm was sampled. Some sections were […] on slides and stained with cresyl violet to measure neuronal density. Others were used for free floating NADPH-diaphorase histochemistry.
NADPH-Diaphorase histochemistry. […]

BV-2 cells = assay: Cell number count by tryphan exclusion in BV-2 cells; type: cell-based, murine; details: with or without LPS; end of 6 hours treatment; up to 5 mM
[5] = background statement; cited from earlier work
CA1 hippocampal neurons [6] = details: Cho et al. 1997, cited from earlier work

Effect on body temperature versus saline-treated ischemic group ([3]; 10 mg/kg triple i.p., any time point up to 4 hours of reperfusion, ANOVA, Newman-Keuls): no differences in body temperatures
Temperature recording during cerebral reperfusion ([3]; NC-111 (0, 0.5, 2 h), n = 9, postischemic time 1 hour): 37.6 ± 0.2
Temperature recording during cerebral reperfusion ([3]; NC-111 (0, 0.5, 2 h), n = 9, postischemic time 1.5 hour): 37.3 ± 0.1
Temperature recording during cerebral reperfusion ([3]; NC-111 (0, 0.5, 2 h), n = 9, postischemic time 2 hour): 37.3 ± 0.1
Temperature recording during cerebral reperfusion ([3]; NC-111 (0, 0.5, 2 h), n = 9, postischemic time 3 hour): 37.5 ± 0.2
Temperature recording during cerebral reperfusion ([3]; NC-111 (0, 0.5, 2 h), n = 9, postischemic time 4 hour): 37.2 ± 0.1
Temperature recording during cerebral reperfusion ([3]; NC-111 (1 h) group (injections at 1, 1.5, 3 h), n = 7, postischemic time 0.5 hour): 37.9 ± 0.2
Temperature recording during cerebral reperfusion ([3]; NC-111 (1 h) group, n = 7, postischemic time 1 hour): 36.9 ± 0.1
Temperature recording during cerebral reperfusion ([3]; NC-111 (1 h) group, n = 7, postischemic time 1.5 hour): 37.0 ± 0.1
Temperature recording during cerebral reperfusion ([3]; NC-111 (1 h) group, n = 7, postischemic time 2 hour): 37.4 ± 0.1
Temperature recording during cerebral reperfusion ([3]; NC-111 (1 h) group, n = 7, postischemic time 3 hour): 37.5 ± 0.2
Temperature recording during cerebral reperfusion ([3]; NC-111 (1 h) group, n = 7, postischemic time 4 hour): 37.5 ± 0.3
Temperature recording during cerebral reperfusion ([3]; NC-111 (2 hr) group (injections at 2, 2.5, 4 h), n = 6, postischemic time 0.5 hour): 38.3 ± 0.2
Temperature recording during cerebral reperfusion ([3]; NC-111 (2 hr) group, n = 6, postischemic time 1 hour): 36.8 ± 0.3
Temperature recording during cerebral reperfusion ([3]; NC-111 (2 hr) group, n = 6, postischemic time 1.5 hour): 37.2 ± 0.4
Temperature recording during cerebral reperfusion ([3]; NC-111 (2 hr) group, n = 6, postischemic time 2 hour): 37.4 ± 0.2
Temperature recording during cerebral reperfusion ([3]; NC-111 (2 hr) group, n = 6, postischemic time 3 hour): 37.3 ± 0.2
Temperature recording during cerebral reperfusion ([3]; NC-111 (2 hr) group, n = 6, postischemic time 4 hour): 37.9 ± 0.3
Temperature recording during cerebral reperfusion ([3]; NC-111 (injections at 0, 0.5, 2 h of reperfusion), n = 9, postischemic time 0.5 hour): 37.7 ± 0.2
Compound: COc1cc(CCNC(C)=O)ccc1O [NAMDA, N-acetyl-3-O-methyldopamine]
CA1 neuronal density / protection of CA1 neurons (of non-ischemic control) (CA1 hippocampal neurons [1]; 10 min 4-VO ischemia, 10 mg/kg i.p. at 0, 0.5, 2 h (immediately after reperfusion), measured one week later): 45%
Protection of neurons in CA1 hippocampus (CA1 hippocampal neurons [1]; 10 min 4-VO ischemia, NAMDA treatment versus saline, one week later, Fisher's PLSD p<0.0001): significantly protected neurons in CA1 hippocampus
Neuron density in CA1 at 24 hours postischemic (CA1 hippocampal neurons [1]; 10 min ischemia, NAMDA-ischemic n=3, 24 hours postischemic): 18.3±2.2 neurons/10^5 μm^3
Protection of CA1 neurons with delayed administration (CA1 hippocampal neurons [1]; administration delayed up to 2 hours after ischemia, one week later): protect CA1 neurons despite delaying the treatment up to 2 hours; also recorded: significant protection of CA1 neurons
Baseline NADPH-diaphorase staining intensity ([2]; absence of LPS): not affected
LPS-induced NADPH-diaphorase activity (staining) ([2]; presence of LPS): attenuated
Nitrite accumulation in cell supernatant (BV-2 microglia cells; absence of LPS): did not alter nitrite accumulation
Nitrite accumulation in cell supernatant (BV-2 microglia cells; presence of LPS 0.2 μg/ml, ANOVA p<0.001): significantly reduced nitrite accumulation in a dose-dependent manner
Ischemia-induced NADPH-diaphorase staining in CA1 ([4]; 24 hours postischemic): markedly reduced
Ischemia-induced NADPH-diaphorase staining in CA1 ([4]; 48 hours after ischemia): attenuation of the staining was persisted
Total number of cells (cell viability) (BV-2 cells): did not affect the total number of cells

Compound: COc1ccc2[nH]cc(CCNC(C)=O)c2c1 [melatonin, Melatonin]
Solubility in aqueous media [5]: insoluble in aqueous media
Protection of CA1 neurons (CA1 hippocampal neurons [6]; administration starting immediately after / during reperfusion, 10 min transient forebrain ischemia): significantly protect CA1 neurons; also recorded: protects the CA1 hippocampal neurons
Protection of CA1 neurons with delayed administration (CA1 hippocampal neurons [6]; delay of one hour): did not offer significant protection
Protection of the neurons with delayed administration (CA1 hippocampal neurons [6]; delay of one to two hours in administration): significantly decreased protection of the neurons
